Reference: patent publication US20190365673A1, “Immunomodulatory Compounds” (Lankenau Institute for Medical Research, priority 2016, published 2019)
Like-named read-outs stand apart in the source and are kept apart here.

How the values were obtained:
WM983B melanoma cells = experiment: Cell viability assay (EZQuant), WM983B; type: cell-based; details: Homo sapiens, AP alone, 72 h
Description: (§1) Cell proliferation assays were conducted in 96-well plates at 25-30% starting confluence to determine the effect of exposure to increasing concentrations of PLX4720 or AP with or without 1 mM DFMO for 72 hours. Cell viability was assessed using the EZQuant™ Cell Quantifying Kit (Alstem) in which WST-8 is reduced by the metabolic activity of live cells to formazan dye. […] The 72 hour IC50 values for AP were calculated using non-linear regression (sigmoidal dose response) of the plot of percentage inhibition versus the log of inhibitor concentration in GraphPad Prism (v5; GraphPad Software, Inc., La Jolla, Calif.).

1205Lu melanoma cells = experiment: Cell viability assay (EZQuant), 1205Lu; type: cell-based; details: Homo sapiens, AP alone, 72 h, BRAF V600E
Description: as §1

WM989 melanoma cells = experiment: Cell viability assay (EZQuant), WM989; type: cell-based; details: Homo sapiens; AP alone, 72 h, WM989, BRAF V600E
Description: as §1

WM88 melanoma cells = experiment: Cell viability assay (EZQuant), WM88; type: cell-based; details: Homo sapiens; AP alone, 72 h, WM88, BRAF V600E
Description: as §1

WM3451 melanoma cells = experiment: Cell viability assay (EZQuant), WM3451; type: cell-based; details: Homo sapiens; AP alone, 72 h, WM3451, BRAF WT
Description: as §1

[1] = tested on: BRAF^V600E melanoma cells; experiment: Cell viability, panel of BRAF V600E human melanoma cell lines; type: cell-based; details: summary of Table 1, BRAF V600E lines, read-out: IC50 (sensitivity to AP)
From the text: A panel of human melanoma cell lines with different BRAF mutational status were screened for their sensitivity to the BRAF inhibitor PLX4720. […] The IC50 value is defined as the concentration of the compound (PLX4720) required to inhibit 50% cell viability compared to an untreated control. This approach allowed for the ranking of the relative sensitivity of each cell line to the PLX4720 BRAF inhibitor. Thus, the sensitivity of these BRAF^V600E melanoma cells to BRAF inhibition with PLX4720 reflected their functional dependence on mutant BRAF signaling to sustain their proliferation and viability. Likewise, it was tested whether BRAF^V600E cells were more sensitive compared to BRAF^WT melanoma cells to increasing concentrations of the cytotoxic polyamine transport ligand, AP.

[2] = tested on: 1205Lu melanoma monolayer cultures; experiment: 2D monolayer culture viability (CellTiter-Glo); type: cell-based, human; details: FIG. 10, 25 μM each drug, 48 h
Description: BRAF^V600E mutant 1205Lu melanoma cells were seeded at 1×10^4 cells in each well of the […] NCPs. When spheroids were formed on day 3, the 3D cultures of spheroids were treated with PLX4720 (25 μM) and/or AP (25 μM). 2D monolayer cultures of 1205Lu melanoma cells were also treated with PLX4720 (25 μM) and/or AP (25 μM). After drug treatment for 48 hours, the viability of spheroids and monolayer cultures was assayed using the CellTiter-Glo Luminescent Cell Viability Assay. The percent cell survival in each treatment group was calculated relative to cells treated with medium only under the same conditions. As controls, the growth of cells without drug treatment under each condition was normalized as 100% separately. The means are presented±SD.

B16F10 melanoma tumors = experiment: B16F10 melanoma tumor model (Example 3); type: in vivo, C57Bl/6 mice
Description: C57Bl/6 mice were injected s.c. with 1.5×10^5 B16F10 melanoma cells. B16F10 melanoma cells are a poorly immunogenic, highly metastatic, and highly aggressive cancer cell line. When tumors were 40-80 mm^3 in size, AP (Formula (II)) treatment (i.p., 2 mg/kg every other day) was initiated. Some mice were also administered 0.25% DFMO (w/v) in the drinking water. Tumors were measured with calipers to determine tumor volume over 14 days of treatment (FIG. 12A). Splenocytes from mice treated with vehicle, DFMO, AP, or AP+DFMO were analyzed by flow cytometry for F4/80+CD206^+ M2 macrophages (FIG. 12B). Splenocytes were treated for 4 hours at 37° C. with ionomycin (500 ng/ml) and PMA (50 ng/ml) to stimulate T cells to produce IFNγ in the presence of Brefeldin A to block cytokine secretion. Cells were stained with anti-CD4 antibody in the presence of Brefeldin A, fixed, permeabilized and intracellularly stained with an anti-IFNγ antibody and analyzed by flow cytometry (FIG. 12C).

[3] = tested on: CXCR4^+ RAW247.6 macrophage cells; experiment: In vitro chemotaxis assay, SDF-1 stimulated migration; type: cell-based
Description: The ability to inhibit stromal cell-derived factor 1 (SDF-1) stimulated migration of macrophage was also tested in an in vitro chemotaxis assay. Specifically, CXCR4^+ RAW247.6 macrophage cells were treated with SDF-1α alone or with AMD3100, a specific CXCR4 antagonist which inhibits cell migration and phosphorylation of ERK1/2 by SDF-1, or AP (Formula (II)).

CNCNCNCc1ccc(CNCNCNC)c2ccccc12 [AP]
IC50 (WM983B melanoma cells; BRAF V600E, read-out: IC50 (μM AP)): 2.6 µM | IC50 (WM983B melanoma cells; FIG. 8C, read-out: IC50): 2.3 µM | IC50 (1205Lu melanoma cells): 0.7 µM | IC50 (WM989 melanoma cells): 1.2 µM | IC50 (WM88 melanoma cells): 0.8 µM | IC50 (WM3451 melanoma cells): 9 µM | IC50 [1]: < 2500 nM | cell viability of monolayer cultures [2]: similarly sensitive | tumor growth (B16F10 melanoma tumors; FIG. 12A, AP alone, i.p. 2 mg/kg every other day, 14 days): inhibits tumor growth | CD206+ F4/80+ macrophages (splenocytes) (B16F10 melanoma tumors; FIG. 12B, AP alone): dramatically decreases | IFN-gamma-secreting T cells (B16F10 melanoma tumors; FIG. 12C, splenocytes stimulated with ionomycin and PMA): increasing | SDF-1-stimulated migration of CXCR4+ macrophages ([3]; FIG. 13): inhibits | viability of the macrophages ([3]; in the chemotaxis assay): without affecting the viability
